Data from US11072588B2, “Barbituric acid derivatives comprising cationic and lipophilic groups” (UNIVERSITETET I TROMSØ—NORGES ARKTISKE UNIVERSITET, priority 2017, dated 2021).
≈ marks a conversion by molar mass, not a printed value. Where two headings read alike, the source gives them in different places.

How the values were obtained:
[1] = test system: panel of 30 multi-resistant clinical isolates of Gram-positive and Gram-negative bacteria; test: MIC screening, ranges over the panel of clinical isolates; type: cell-based
Method: (§1) Working solutions of the test derivatives were prepared with up to 100% DMSO and stored at −20° C. If necessary, the solutions were heated to 40-80° C. before testing to facilitate complete dissolution. Double-distilled water was used in all dilutions prepared. […] A microdilution susceptibility test was used for MIC determination according to Clinical and Laboratory Standards Institute, “Methods for Dilution Antimicrobial Sisceptibility Tests for Bacteria That Graw Aerobically”, Approved Standard M07-A9, edition 2012, with modifications as described by Igumnova et al (Bioorg Med Chem, 2016, 24 (22), 5884-5894).
(§2) Briefly, the bacterial inoculum was adjusted to approximately 2.5-3×10^4 cells/mL in Mueller-Hinton broth (MHB, Difco Laboratories, USA), and incubated in a ratio of 1:1 with test derivatives in polystyrene 96-well flat-bottom microplates (NUNC, Roskilde, Denmark). Positive growth control (without test derivatives) and negative control (without bacteria) were included. The reference antibiotic was oxytetracycline hydrochloride (Sigma Aldrich, Saint Louis, Mo., USA). The microplates were incubated in an EnVision microplate reader (Perkin-Elmer, Turku, Finland) placed in an incubator set to 35° C. for 48 h. The MIC value was defined as the lowest concentration of derivative resulting in no bacterial growth as determined by OD600 measurement. All derivatives were tested in three parallels.
(§3) The MIC was determined as explained above with some exceptions; working solutions of test derivatives were prepared from concentrated DMSO stocks stored at room temperature, the density of the bacterial inoculum was increased 40× to 1-1.2×10^6 cells/mL, enterococci were incubated in Brain Heart Infusion broth (BHIB, Difco Laboratories, USA), the microplates were incubated for 24 h, and the derivatives were tested in four parallels.

[2] = test system: Corynebacterium glutamicum ATCC 13032; test: MIC assay, antibiotic susceptible reference strain; type: cell-based; conditions: Corynebacterium glutamicum, ATCC13032, read-out: Antimicrobial activity (MIC) C. g
Procedure, shortened: (§4)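 Broth microdilution followed CLSI M07-A9 with modifications: inoculum ~2.5-3×10^4 cells/mL in Mueller-Hinton broth, mixed 1:1 with test derivative, incubated 48 h at 35 °C. MIC was the lowest concentration giving no growth by OD600, tested in three parallels, with oxytetracycline as reference antibiotic.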

[3] = test system: Escherichia coli ATCC 25922; test: MIC assay, antibiotic susceptible reference strain; type: cell-based; conditions: Escherichia coli, ATCC25922, read-out: Antimicrobial activity (MIC) E. c
Procedure, shortened: as §4

[4] = test system: Pseudomonas aeruginosa PA01, DSM 19880 (ATCC 15692); test: MIC assay, antibiotic susceptible reference strain; type: cell-based; conditions: Pseudomonas aeruginosa, read-out: Antimicrobial activity (MIC) P. a
Procedure, shortened: as §4

[5] = test system: Staphylococcus aureus ATCC 9144; test: MIC assay, antibiotic susceptible reference strain; type: cell-based; conditions: Staphylococcus aureus, ATCC9144, read-out: Antimicrobial activity (MIC) S. a
Procedure, shortened: as §4

[6] = test system: E. coli 50639799; test: MIC, multi-resistant clinical isolate; type: cell-based, Escherichia coli
Method: as §1, §2, §3

[7] = test system: E. coli 50857972; test: MIC, multi-resistant clinical isolate; type: cell-based, Escherichia coli
Method: as §1, §2, §3

[8] = test system: E. faecium TUH50-22; test: MIC, multi-resistant clinical isolate; type: cell-based, Enterococcus faecium
Method: as §1, §2, §3

[9] = test system: E. faecium K36-18; test: MIC, multi-resistant clinical isolate; type: cell-based, Enterococcus faecium
Method: as §1, §2, §3

[10] = test system: E. faecium 50673722; test: MIC, multi-resistant clinical isolate; type: cell-based, Enterococcus faecium
Method: as §1, §2, §3

[11] = test system: E. faecium 50758899; test: MIC, multi-resistant clinical isolate; type: cell-based, Enterococcus faecium
Method: as §1, §2, §3

[12] = test system: E. faecium 50901530; test: MIC, multi-resistant clinical isolate; type: cell-based, Enterococcus faecium
Method: as §1, §2, §3

[13] = test system: P. aeruginosa K44-24; test: MIC, multi-resistant clinical isolate; type: cell-based, Pseudomonas aeruginosa
Method: as §1, §2, §3

[14] = test system: P. aeruginosa 50692520; test: MIC, multi-resistant clinical isolate; type: cell-based, Pseudomonas aeruginosa
Method: as §1, §2, §3

[15] = test system: P. aeruginosa 50692172; test: MIC, multi-resistant clinical isolate; type: cell-based, Pseudomonas aeruginosa
Method: as §1, §2, §3

[16] = test system: P. aeruginosa K34-73; test: MIC, multi-resistant clinical isolate; type: cell-based, Pseudomonas aeruginosa; conditions: P. aeruginosa K34-73
Method: as §1, §2, §3

[17] = test system: P. aeruginosa K34-7; test: MIC, multi-resistant clinical isolate; type: cell-based, Pseudomonas aeruginosa
Method: as §1, §2, §3

[18] = test system: S. epidermidis; test: Anti-biofilm activity (inhibition of biofilm formation); type: cell-based; conditions: Staphylococcus epidermidis, read-out: Anti-biofilm IC50
[19] = test system: K. pneumoniae K47-25; test: MIC, multi-resistant clinical isolate; type: cell-based, Klebsiella pneumoniae; conditions: K. pneumoniae K47-25, resistant to colistin
Method: as §1, §2, §3

[20] = test system: K. pneumoniae K66-45; test: MIC, multi-resistant clinical isolate; type: cell-based, Klebsiella pneumoniae
Method: as §1, §2, §3

[21] = test system: K. pneumoniae 50531633; test: MIC, multi-resistant clinical isolate; type: cell-based, Klebsiella pneumoniae; conditions: K. pneumoniae 50531633, resistant to colistin
Method: as §1, §2, §3

[22] = test system: K. pneumoniae 50667959; test: MIC, multi-resistant clinical isolate; type: cell-based, Klebsiella pneumoniae
Method: as §1, §2, §3

[23] = test system: K. pneumoniae 50625602; test: MIC, multi-resistant clinical isolate; type: cell-based, Klebsiella pneumoniae
Method: as §1, §2, §3

[24] = Escherichia coli, read-out: Antimicrobial activity (MIC)
[25] = Enterococcus faecium, read-out: Antimicrobial activity (MIC)
[26] = Pseudomonas aeruginosa, read-out: Antimicrobial activity (MIC)
[27] = Klebsiella pneumoniae, read-out: Antimicrobial activity (MIC)

CC(C)(C)c1ccc(CC2(Cc3ccc(C(C)(C)C)cc3)C(=O)N(CCCCNC(=N)N)C(=O)N(CCCCNC(=N)N)C2=O)cc1 [Compound 8(i), 1,1′-(4,4′-(5,5-bis(4-tert-butylbenzyl)-2,4,6-trioxodihydropyrimidine-1,3(2H,4H)-diyl)bis(butane-4,1-diyl))diguanidine]
MIC ([1]; Pseudomonas aeruginosa, read-out: MIC against P. aeruginosa): 8 to 16 mg/L (≈ 12.4 to 24.7 µM) | fold improvement in antimicrobial activity compared to the analogous amine barbiturate 7(i) ([1]; multi-resistant clinical isolates): up to 4 fold | MIC ([1]; read-out: MIC values against S. aurues, E. faecium and E. coli): 2 to 4 mg/L (≈ 3.09 to 6.18 µM) | MIC ([1]; read-out: MIC values against the Gram-negative multi-resistant clinical isolates of K. pneumoniae and A. baumanii): 4 to 8 mg/L (≈ 6.18 to 12.4 µM) | MIC [2]: < 0.13 mg/L | MIC [3]: 2 mg/L (≈ 3.09 µM) | MIC [4]: 4 mg/L (≈ 6.18 µM) | MIC [5]: 1 mg/L (≈ 1.55 µM) | MIC [6, 24]: 4 mg/L (≈ 6.18 µM) | selectivity index (EC50/MIC) ([6]; RBC EC50 / MIC): (19) | MIC [7, 24]: 4 mg/L (≈ 6.18 µM) | selectivity index (EC50/MIC) ([7]; RBC EC50 / MIC): (19) | MIC ([8]; Enterococcus faecium, TUH5022, read-out: Antimicrobial activity (MIC)): 2 mg/L (≈ 3.09 µM) | selectivity index (EC50/MIC) ([8]; RBC EC50 / MIC): (39) | MIC ([9]; Enterococcus faecium, K3618, read-out: Antimicrobial activity (MIC)): 2 mg/L (≈ 3.09 µM) | selectivity index (EC50/MIC) ([9]; RBC EC50 / MIC, E. faecium K36-18): (39) | MIC [10, 25]: 2 mg/L (≈ 3.09 µM) | selectivity index (EC50/MIC) ([10]; RBC EC50 / MIC): (39) | MIC [11, 25]: 2 mg/L (≈ 3.09 µM) | selectivity index (EC50/MIC) ([11]; RBC EC50 / MIC): (39) | MIC [12, 25]: 4 mg/L (≈ 6.18 µM) | selectivity index (EC50/MIC) ([12]; RBC EC50 / MIC): (19) | MIC ([13]; Pseudomonas aeruginosa, K4424, read-out: Antimicrobial activity (MIC)): 16 mg/L (≈ 24.7 µM) | selectivity index (EC50/MIC) ([13]; RBC EC50 / MIC): (5) | MIC [14, 26]: 16 mg/L (≈ 24.7 µM) | selectivity index (EC50/MIC) ([14]; RBC EC50 / MIC): (5) | MIC [15, 26]: 16 mg/L (≈ 24.7 µM) | selectivity index (EC50/MIC) ([15]; RBC EC50 / MIC): (5) | MIC ([16]; Pseudomonas aeruginosa, K3473, read-out: Antimicrobial activity (MIC)): 8 mg/L (≈ 12.4 µM) | selectivity index (EC50/MIC) ([16]; RBC EC50 / MIC): (10) | MIC ([17]; Pseudomonas aeruginosa, K347, read-out: Antimicrobial activity (MIC)): 16 mg/L (≈ 24.7 µM) | selectivity index (EC50/MIC) ([17]; RBC EC50 / MIC, P. aeruginosa K34-7): (5) | IC50 [18]: 1 mg/L (≈ 1.55 µM) | MIC ([19]; Klebsiella pneumoniae, K4725, 24 h, read-out: Antimicrobial activity (MIC)): 4 mg/L (≈ 6.18 µM) | selectivity index (EC50/MIC) ([19]; RBC EC50 / MIC): (19) | MIC ([20]; Klebsiella pneumoniae, K6645, read-out: Antimicrobial activity (MIC)): 4 mg/L (≈ 6.18 µM) | selectivity index (EC50/MIC) ([20]; RBC EC50 / MIC, K. pneumoniae K66-45): (19) | MIC ([21]; Klebsiella pneumoniae, 24 h, read-out: Antimicrobial activity (MIC)): 4 mg/L (≈ 6.18 µM) | selectivity index (EC50/MIC) ([21]; RBC EC50 / MIC): (19) | MIC [22, 27]: 16 mg/L (≈ 24.7 µM) | selectivity index (EC50/MIC) ([22]; RBC EC50 / MIC): (5) | MIC [23, 27]: 4 mg/L (≈ 6.18 µM) | selectivity index (EC50/MIC) ([23]; RBC EC50 / MIC): (19)
